Consider 24 molecules from patent US20230348462A1, “IMIDAZO[4,5-C]QUINOLINE COMPOUNDS AND THEIR USE AS ATM KINASE INHIBITORS” (Deutsches Krebsforschungszentrum, priority 2020, published 2023).

Where only a bound is given, the exact number is not on record here.

The target in one assay is human ATM (Homo sapiens (Human), UniProt Q13315). Put plainly: Enzymatic ATM assay (RBC FRET enzyme assay). The class given is biochemical. The note with it: substrate p53, 5-point dilution starting at 10 μM. How it is done:
The inhibitory activity on the isolated ATM kinase was determined by a commercial supplier (Reaction Biology Corp., PA, US) using an activity based FRET assay. Compounds were therefore first pre-incubated with human ATM before substrate (p53) and ATP were added to initiate the phosphorylation reaction. After a given time, the kinase reaction was stopped and the amount of phosphorylated substrate was quantified using standard FRET detection methods. […] Detailed assay conditions and parameters can be requested from the commercial supplier.

The test system of assay [1] is kras^G12D; mycOE; p53^−/− murine pancreatic cancer cells (KMP53). The assay is described as follows: KMP53 cell assay (XTT cell viability with Etoposide). As to conditions: Mus musculus, 4 h pre-treatment, then 300 nM Etoposide, 46 h. The class given is cell-based. The text has this:
(§1) A selection of compounds was screened in a cellular assay system in two different cancer cell lines. Therefore, the cells were challenged with a generally non-cytotoxic concentration of Etoposid to induce DNA double strand breaks and the activation of the ATM pathway. The cells were further treated with different concentrations of the final compounds and viability of the cells was quantified using a standard XTT cell viability protocol. The principle of this assay lies in the fact that only alive and thus metabolically active cells are able to catalyze the reduction of XTT ((2,3-bis-(2-methoxy-4-nitro-5-sulfophenyl)-2H-tetrazolium-5-carboxanilide) by NADH from mitochondria, into formazan. The formazan product can be then detected using an absorbance-based microplate reader. The absorbance intensity measured in each well correlates to cell viability.
(§2) In brief, kras^G12D; mycOE; p53^−/− murine pancreatic cancer cells (KMP53) and Panc-1 human pancreatic ductal carcinoma cells were seeded in 96-well plates and left to attach overnight. The following day, cells were treated with serial dilutions of compound or DMSO in triplicates. The cells were first pre-treated for 4 hours with inhibitor and then 300 nM of Etoposide was added to each well. Cells were then grown under normal conditions (37° C., 95% air, 5% CO2) for 46 h. Following the incubation period, XTT solution was added to the cells containing 1 mg/ml XTT and 25 μM phenazine methosulfate (PMS) diluted in full culture medium. Cells were incubated in normal conditions for two more hours. For the determination of cell viability, absorbance at 450 nm was measured for each well. Absorbance values were then normalized to DMSO control and expressed as percentages of viability. Using software GraphPad Prism, the values were fitted in a nonlinear response curve and the IC50 values were calculated.
A general note: Tetrazolium dyes change colour on reduction, which living cells bring about.

Assay [2] relates to Panc-1 human pancreatic ductal carcinoma cells. The assay is described as follows: Panc1 cell assay (XTT cell viability with Etoposide). It is filed as cell-based. The note with it: 4 h pre-treatment, then 300 nM Etoposide, 46 h.
Text: as §1, §2

Chain of human ATM (Q13315 whole entry): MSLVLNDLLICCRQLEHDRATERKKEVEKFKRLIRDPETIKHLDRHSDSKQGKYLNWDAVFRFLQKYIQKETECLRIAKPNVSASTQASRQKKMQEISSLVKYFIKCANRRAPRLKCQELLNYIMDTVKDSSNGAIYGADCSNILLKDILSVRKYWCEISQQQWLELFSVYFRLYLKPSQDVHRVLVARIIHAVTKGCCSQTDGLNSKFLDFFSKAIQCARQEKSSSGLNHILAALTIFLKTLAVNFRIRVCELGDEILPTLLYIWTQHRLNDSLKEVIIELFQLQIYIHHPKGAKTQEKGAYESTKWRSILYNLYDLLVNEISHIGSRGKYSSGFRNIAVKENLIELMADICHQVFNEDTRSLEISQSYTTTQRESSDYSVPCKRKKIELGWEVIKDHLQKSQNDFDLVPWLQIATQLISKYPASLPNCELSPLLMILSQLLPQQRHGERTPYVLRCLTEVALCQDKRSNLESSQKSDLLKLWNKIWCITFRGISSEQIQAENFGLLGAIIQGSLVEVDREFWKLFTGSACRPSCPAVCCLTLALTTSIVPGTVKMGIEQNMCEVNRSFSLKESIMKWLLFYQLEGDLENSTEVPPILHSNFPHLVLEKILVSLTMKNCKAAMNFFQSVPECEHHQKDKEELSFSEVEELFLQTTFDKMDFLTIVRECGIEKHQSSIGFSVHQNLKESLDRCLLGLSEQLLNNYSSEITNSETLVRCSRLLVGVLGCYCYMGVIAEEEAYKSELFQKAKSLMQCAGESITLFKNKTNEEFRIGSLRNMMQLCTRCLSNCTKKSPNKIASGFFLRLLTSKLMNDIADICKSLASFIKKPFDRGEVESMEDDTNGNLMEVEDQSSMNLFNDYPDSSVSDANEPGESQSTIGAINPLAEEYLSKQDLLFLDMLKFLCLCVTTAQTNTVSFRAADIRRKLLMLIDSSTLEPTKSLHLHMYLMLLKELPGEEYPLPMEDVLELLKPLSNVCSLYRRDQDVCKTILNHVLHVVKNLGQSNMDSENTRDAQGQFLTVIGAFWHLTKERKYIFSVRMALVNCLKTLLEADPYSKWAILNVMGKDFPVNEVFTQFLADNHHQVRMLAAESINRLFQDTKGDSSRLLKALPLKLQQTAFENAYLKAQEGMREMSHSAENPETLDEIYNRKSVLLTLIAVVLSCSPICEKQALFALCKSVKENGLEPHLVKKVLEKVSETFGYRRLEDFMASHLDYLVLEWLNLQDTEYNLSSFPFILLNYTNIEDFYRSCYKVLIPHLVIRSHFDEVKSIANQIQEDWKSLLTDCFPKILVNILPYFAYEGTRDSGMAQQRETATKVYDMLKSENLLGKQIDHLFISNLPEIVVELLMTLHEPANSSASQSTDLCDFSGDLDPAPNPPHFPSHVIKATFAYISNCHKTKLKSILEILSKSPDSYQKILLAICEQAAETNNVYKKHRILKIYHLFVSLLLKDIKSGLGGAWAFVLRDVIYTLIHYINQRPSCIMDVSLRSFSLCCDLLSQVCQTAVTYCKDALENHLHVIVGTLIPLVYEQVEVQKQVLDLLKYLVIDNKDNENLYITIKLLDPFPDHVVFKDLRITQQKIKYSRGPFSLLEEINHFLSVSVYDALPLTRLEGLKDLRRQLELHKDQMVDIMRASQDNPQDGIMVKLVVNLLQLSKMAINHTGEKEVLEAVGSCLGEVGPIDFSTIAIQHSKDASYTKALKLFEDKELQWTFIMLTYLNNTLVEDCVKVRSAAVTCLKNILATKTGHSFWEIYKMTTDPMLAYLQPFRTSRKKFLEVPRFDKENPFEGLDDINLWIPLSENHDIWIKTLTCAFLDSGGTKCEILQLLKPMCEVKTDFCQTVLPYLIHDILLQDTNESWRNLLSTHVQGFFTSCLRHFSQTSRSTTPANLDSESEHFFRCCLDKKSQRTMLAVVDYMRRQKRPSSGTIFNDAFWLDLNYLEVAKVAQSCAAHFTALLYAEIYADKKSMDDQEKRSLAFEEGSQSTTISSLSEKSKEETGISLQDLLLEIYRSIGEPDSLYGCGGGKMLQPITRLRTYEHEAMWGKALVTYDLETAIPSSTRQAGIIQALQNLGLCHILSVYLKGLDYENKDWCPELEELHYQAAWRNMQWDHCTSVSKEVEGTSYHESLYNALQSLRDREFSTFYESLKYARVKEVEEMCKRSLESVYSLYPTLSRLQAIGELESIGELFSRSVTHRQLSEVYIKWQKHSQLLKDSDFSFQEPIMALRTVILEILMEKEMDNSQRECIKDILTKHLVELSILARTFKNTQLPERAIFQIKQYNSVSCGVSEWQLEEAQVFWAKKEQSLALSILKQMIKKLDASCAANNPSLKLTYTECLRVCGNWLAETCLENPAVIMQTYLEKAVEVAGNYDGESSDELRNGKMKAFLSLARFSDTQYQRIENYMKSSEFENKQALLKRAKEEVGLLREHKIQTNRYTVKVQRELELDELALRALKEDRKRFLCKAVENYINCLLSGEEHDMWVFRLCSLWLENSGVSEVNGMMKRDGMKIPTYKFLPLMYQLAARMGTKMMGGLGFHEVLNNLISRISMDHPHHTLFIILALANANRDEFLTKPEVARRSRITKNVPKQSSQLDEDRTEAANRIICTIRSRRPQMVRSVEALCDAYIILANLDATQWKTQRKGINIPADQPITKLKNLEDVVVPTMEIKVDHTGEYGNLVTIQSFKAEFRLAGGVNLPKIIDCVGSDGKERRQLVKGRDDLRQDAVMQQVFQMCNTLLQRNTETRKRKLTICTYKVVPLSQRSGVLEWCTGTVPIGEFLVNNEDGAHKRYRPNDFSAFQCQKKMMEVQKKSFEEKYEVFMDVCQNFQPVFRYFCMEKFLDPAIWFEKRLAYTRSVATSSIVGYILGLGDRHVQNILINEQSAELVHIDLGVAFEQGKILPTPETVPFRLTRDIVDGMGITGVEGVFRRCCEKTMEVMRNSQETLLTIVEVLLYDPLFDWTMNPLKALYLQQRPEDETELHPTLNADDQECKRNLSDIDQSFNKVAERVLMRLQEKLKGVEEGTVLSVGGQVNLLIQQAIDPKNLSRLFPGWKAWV

What is called IC50 is the midpoint of a concentration-inhibition curve. The molecule `COCCn1c(=O)n(C)c2cnc3ccc(-c4ccc(NC(=O)NC5CN(C)C5)cc4)cc3c21` [Ex. 21, 1-(4-(1-(2-Methoxyethyl)-3-methyl-2-oxo-2,3-dihydro-1H-imidazo[4,5-c]quinolin-8-yl)phenyl)-3-(1-methylazetidin-3-yl)urea] yielded a half-maximal inhibitory concentration (IC50) at human ATM of less than 1 nM.
In the case of `COCCn1c(=O)n(C)c2cnc3ccc(-c4ccc(NC(=O)NCCN(C)C)cc4)cc3c21` [Ex. 11, 1-(2-(Dimethylamino)ethyl)-3-(4-(1-(2-methoxyethyl)-3-methyl-2-oxo-2,3-dihydro-1H-imidazo[4,5-c]quinolin-8-yl)phenyl)urea], the IC50 at human ATM is less than 1 nM; in assay [1], 4000 nM.
In the case of `COCCn1c(=O)n(C)c2cnc3ccc(-c4ccc(NC(=O)N5CCN(C)CC5)cc4)cc3c21` [Ex. 20, N-(4-(1-(2-methoxyethyl)-3-methyl-2-oxo-2,3-dihydro-1H-imidazo[4,5-c]quinolin-8-yl)phenyl)-4-methylpiperazine-1-carboxamide], the IC50 in assay [1] worked out at 3800 nM.
As to `COCCn1c(=O)n(C)c2cnc3ccc(-c4ccc(NC(=O)NC5CCCN(C)C5)cc4)cc3c21` (stereo not shown) [Ex. 17, 1-(4-(1-(2-Methoxyethyl)-3-methyl-2-oxo-2,3-dihydro-1H-imidazo[4,5-c]quinolin-8-yl)phenyl)-3-(1-methylpiperidin-3-yl)urea], the IC50 at human ATM is less than 1 nM; in assay [2], 4 nM.
`COCCn1c(=O)n(C)c2cnc3ccc(-c4ccc(NC(=O)N5CC(N(C)C)C5)cc4)cc3c21` [Ex. 26, 3-(Dimethylamino)-N-(4-(1-(2-methoxyethyl)-3-methyl-2-oxo-2,3-dihydro-1H-imidazo[4,5-c]58uinoline-8-yl)phenyl)azetidine-1-carboxamide] gave an IC50 against human ATM of 4 nM.
For the molecule `CN(C)CCCOc1ccc(-c2ccc3ncc4nc(-c5ccccc5)n(C5CCOCC5)c4c3c2)cn1` [Ex. 4, N,N-Dimethyl-3-((5-(2-phenyl-1-(tetrahydro-2H-pyran-4-yl)-1H-imidazo[4,5-c]quinolin-8-yl)pyridin-2-yl)oxy)propan-1-amine], the results for the IC50 (on human ATM; in assay [1]) were 3.7 nM and 2100 nM, respectively.
The matching figures for `COCCn1cnc2cnc3ccc(-c4ccc(OCCCN(C)C)nc4)cc3c21` [Ex. 5, 3-((5-(1-(2-Methoxyethyl)-1H-imidazo[4,5-c]quinolin-8-yl)pyridin-2-yl)oxy)-N,N-dimethylpropan-1-amine]: 3.3 nM and 3400 nM.
In the same order, the values of `COCCn1c(=O)n(C)c2cnc3ccc(-c4ccc(NC(=O)NCCN(C)C)c(F)c4F)cc3c21` [Ex. 46, 1-(2,3-Difluoro-4-(1-(2-methoxyethyl)-3-methyl-2-oxo-2,3-dihydro-1H-imidazo[4,5-c]quinolin-8-yl)phenyl)-3-(2-(dimethylamino)ethyl)urea] are 3 nM and 8940 nM.
In the same order, the values of `COCCn1c(-c2ccco2)nc2cnc3ccc(-c4ccc(OCCCN(C)C)nc4)cc3c21` [Ex. 6, 3-((5-(2-(Furan-2-yl)-1-(2-methoxyethyl)-1H-imidazo[4,5-c]quinolin-8-yl)pyridin-2-yl)oxy)-N,N-dimethylpropan-1-amine dimesylate] are less than 1 nM and 3420 nM.
For `COCCn1c(=O)n(C)c2cnc3ccc(-c4ccc(NC(=O)NC5CCN(C)C5)cc4)cc3c21` (stereo not shown) [Ex. 19, 1-(4-(1-(2-Methoxyethyl)-3-methyl-2-oxo-2,3-dihydro-1H-imidazo[4,5-c]quinolin-8-yl)phenyl)-3-(1-methylpyrrolidin-3-yl)urea], the concentration for half-maximal inhibition (IC50) on human ATM was less than 1 nM; in assay [1], 9930 nM; in assay [2] it was 9 nM.
Take `COCCn1c(=O)n(C)c2cnc3ccc(-c4ccc(NC(=O)NC(C)CN(C)C)cc4)cc3c21` (racemic) [Ex. 52, (RS)-1-(1-(Dimethylamino)propan-2-yl)-3-(4-(1-(2-methoxyethyl)-3-methyl-2-oxo-2,3-dihydro-1H-imidazo[4,5-c]quinolin-8-yl)phenyl)urea]: the IC50 at human ATM was less than 1 nM; in assay [1], 5470 nM.
The matching figures for `CN(C)CCCOc1ccc(-c2ccc3ncc4nc(-c5ccco5)n(C5CCOCC5)c4c3c2)cn1` [Ex. 3, 3-((5-(2-(Furan-2-yl)-1-(tetrahydro-2H-pyran-4-yl)-1H-imidazo[4,5-c]quinolin-8-yl)pyridin-2-yl)oxy)-N,N-dimethylpropan-1-amine]: less than 1 nM and 7500 nM.
Consider `COCCn1c(=O)n(C)c2cnc3ccc(-c4ccc(NC(=O)NCCN(C)C)c(C)c4F)cc3c21` [Ex. 48, 1-(2-(Dimethylamino)ethyl)-3-(3-fluoro-4-(1-(2-methoxyethyl)-3-methyl-2-oxo-2,3-dihydro-1H-imidazo[4,5-c]quinolin-8-yl)-2-methylphenyl)urea], for which the IC50 in assay [1] is 7950 nM.
As for `COCCn1c(=O)n(C)c2cnc3ccc(-c4ccc(NC(=O)NCCN5CC(F)C5)cc4)cc3c21` [Ex. 50, 1-(2-(3-Fluoroazetidin-1-yl)ethyl)-3-(4-(1-(2-methoxyethyl)-3-methyl-2-oxo-2,3-dihydro-1H-imidazo[4,5-c]quinolin-8-yl)phenyl)urea], the IC50 against human ATM was less than 1 nM; in assay [1], 8040 nM.
In the same order, the values of `CN1CCN(C(=O)Nc2ccc(-c3ccc4ncc5c(c4c3)n(C3CCOCC3)c(=O)n5C)cn2)CC1` [Ex. 8, 4-Methyl-N-(5-(3-methyl-2-oxo-1-(tetrahydro-2H-pyran-4-yl)-2,3-dihydro-1H-imidazo[4,5-c]quinolin-8-yl)pyridin-2-yl)piperazine-1-carboxamide] are 2 nM and 410 nM.
In the same order, the values of `Cc1nc2cnc3ccc(-c4ccc(OCCCN(C)C)nc4)cc3c2n1C1CCOCC1` [Ex. 2, N,N-Dimethyl-3-((5-(2-methyl-1-(tetrahydro-2H-pyran-4-yl)-1H-imidazo[4,5-c]quinolin-8-yl)pyridin-2-yl)oxy)propan-1-amine] are 2.9 nM and 8100 nM.
`COCCn1c(=O)n(C)c2cnc3ccc(-c4ccc(NC(=O)N5CCC(NC(=O)OC(C)(C)C)CC5)cc4)cc3c21` [Ex. 13, tert-Butyl (1-((4-(1-(2-methoxyethyl)-3-methyl-2-oxo-2,3-dihydro-1H-imidazo[4,5-c]quinolin-8-yl)phenyl)carbamoyl)piperidin-4-yl)carbamate] displayed an IC50 on human ATM of 2.3 nM.
In the case of `CN(C)CCCOc1ccc(-c2ccc3ncc4ncn(C5CCOCC5)c4c3c2)cn1` [Ex. 1, N,N-Dimethyl-3-((5-(1-(tetrahydro-2H-pyran-4-yl)-1H-imidazo[4,5-c]quinolin-8-yl)pyridin-2-yl)oxy)propan-1-amine], the figures for the IC50 (at human ATM; in assay [1]) were 2.3 nM and 6900 nM, respectively.
In the same order, the values of `CN(C)CCNC(=O)Nc1ccc(-c2ccc3ncc4c(c3c2)n(C2CCOCC2)c(=O)n4C)cc1` [Ex. 10, 1-(2-(Dimethylamino)ethyl)-3-(4-(3-methyl-2-oxo-1-(tetrahydro-2H-pyran-4-yl)-2,3-dihydro-1H-imidazo[4,5-c]quinolin-8-yl)phenyl)urea] are less than 1 nM and 1450 nM.
For `COCCn1c(=O)n(C)c2cnc3ccc(-c4ccc(NC(=O)NCCN5CCC5)cc4)cc3c21` [Ex. 49, 1-(2-(Azetidin-1-yl)ethyl)-3-(4-(1-(2-methoxyethyl)-3-methyl-2-oxo-2,3-dihydro-1H-imidazo[4,5-c]quinolin-8-yl)phenyl)urea], the concentration for half-maximal inhibition (IC50) on human ATM was less than 1 nM.
Same read-out and setting: then `COCCn1c(=O)n(C)c2cnc3ccc(-c4ccc(NC(=O)N5CCC(N(C)C)C5)cc4)cc3c21` (stereo not shown) [Ex. 25, 3-(Dimethylamino)-N-(4-(1-(2-methoxyethyl)-3-methyl-2-oxo-2,3-dihydro-1H-imidazo[4,5-c]quinolin-8-yl)phenyl)pyrrolidine-1-carboxamide], with 7 nM.
Consider `COCCn1c(=O)n(C)c2cnc3ccc(-c4ccc(OCCCN(C)C)nc4)cc3c21` [Ex. 9, 8-(6-(3-(Dimethylamino)propoxy)43uinolin-3-yl)-1-(2-methoxyethyl)-3-methyl-1,3-dihydro-2H-imidazo[4,5-c]43uinoline-2-one], for which the IC50 against human ATM was less than 1 nM; in assay [1] it was 1580 nM.
`COCCn1c(=O)n(C)c2cnc3ccc(-c4ccc(NC(=O)NC5CCN(C(=O)OC(C)(C)C)CC5)cc4)cc3c21` [Ex. 15, tert-Butyl 4-(3-(4-(1-(2-methoxyethyl)-3-methyl-2-oxo-2,3-dihydro-1H-imidazo[4,5-c]quinolin-8-yl)phenyl)ureido)piperidine-1-carboxylate] yielded an IC50 against human ATM of less than 1 nM.
Same read-out and setting: then `COCCn1c(=O)n(C)c2cnc3ccc(-c4ccc(NC(=O)NC5CCN(C)CC5)cc4)cc3c21` [Ex. 18, 1-(4-(1-(2-Methoxyethyl)-3-methyl-2-oxo-2,3-dihydro-1H-imidazo[4,5-c]quinolin-8-yl)phenyl)-3-(1-methylpiperidin-4-yl)urea], with 4 nM.
